Experimental findings from ChEMBL document CHEMBL5244235, “Diarylpentanoids with antitumor activity: A critical review of structure-activity relationship studies” (Eur J Med Chem, 2020) are described below.

SMILES strings stand for the structures.

The test system of data set [1] is MDA-MB-231. The experiment in a line: Antiproliferative activity against human MDA-MB-231 cells assessed as cell growth inhibition. Format: functional, cell-based.
In data set [2] the test system is HCC1419. Description: Antiproliferative activity against human HCC1419 cells assessed as cell growth inhibition. Format: functional, cell-based.
The subject of data set [3] is MCF7. Description: Antiproliferative activity against human MCF7 cells assessed as cell growth inhibition. Format: functional, cell-based.
Data set [4] can be described thus: Antiproliferative activity against human MCF-10A cells assessed as cell growth inhibition. Format: toxicity, cell-based.
In data set [5] the test system is MDA-MB-231. The experiment in a line: Antiproliferative activity against lung metastasis variant of human MDA-MB-231 cells assessed as cell growth inhibition. Format: functional, cell-based.
Data set [6] in a line: Antiproliferative activity against human KATO III stomach cancer cell line assessed as cell growth inhibition by MTT assay. Format: functional, cell-based.
Data set [7] concerns GCIY. The experiment in a line: Antiproliferative activity against human GCIY cells assessed as cell growth inhibition by MTT assay. Format: functional, cell-based.
Data set [8] relates to LS174T. Description: Antiproliferative activity against human LS174T cells assessed as cell growth inhibition by MTT assay. Format: functional, cell-based. On the technique in general: Formazan colour is commonly taken as a measure of viable cells.
A short description of data set [9]: Antiproliferative activity against human SH-10-TC cells assessed as cell growth inhibition by MTT assay. Format: functional, cell-based.
Data set [10] in a line: Antiproliferative activity against human H-111-TC cells assessed as cell growth inhibition by MTT assay. Format: functional, cell-based.
In data set [11] the test system is HeLa. The experiment in a line: Antiproliferative activity against human HeLa cells assessed as cell growth inhibition measured after 72 hrs by MTT assay. Format: functional, cell-based. Conditions: Homo sapiens, HeLa, 72 h.
Data set [12] has as its system Ca-Ski. The experiment in a line: Antiproliferative activity against human Ca-Ski cells assessed as cell growth inhibition measured after 72 hrs by MTT assay. Format: functional, cell-based.
Data set [13] deals with HUVEC. Description: Anti-angiogenesis activity in HUVEC cells. Format: functional, cell-based. Conditions: Homo sapiens.
Data set [14] in a line: Cytotoxicity activity against mouse SVR cells assessed as cell growth inhibition at 4 ug/ml relative to control. Format: toxicity, cell-based. Conditions: at 4 µg/mL.
Data set [15] is described as follows: Cytotoxicity activity against mouse SVR cells assessed as cell growth inhibition at 6 ug/ml relative to control. Format: toxicity, cell-based. As to conditions: at 6 µg/mL.
Data set [16] can be described thus: Cytotoxicity activity against mouse SVR cells assessed as cell growth inhibition at 3 ug/ml relative to control. Format: toxicity, cell-based. Conditions: at 3 µg/mL.
The subject of data set [17] is B16. The experiment in a line: Antiproliferative activity against mouse B16 cells assessed as cell growth inhibition. Format: functional, cell-based.
Data set [18] concerns L1210. Description: Antiproliferative activity against mouse L1210 cells assessed as inhibition of cell growth. Format: functional, cell-based.
A short description of data set [19]: Antiproliferative activity against human MRC9 cells assessed as cell growth inhibition measured after 72 hrs by MTT assay. Format: functional, cell-based. As to conditions: MRC9, 72 h.
Data set [20] concerns MDA-MB-231. The experiment in a line: Growth inhibition of human MDA-MB-231 cells measured after 72 hrs by microplate reader analysis. Format: functional.
The subject of data set [21] is RPMI-7951. Description: Growth inhibition of human RPMI-7951 cells measured after 72 hrs by microplate reader analysis. Format: functional, cell-based.
Data set [22] can be described thus: Cytotoxicity against HUVEC cells assessed as cell growth inhibition by anti-angiogenisis screening assay. Format: toxicity, cell-based. As to conditions: human.
A short description of data set [23]: Cytotoxicity against mouse MS-1 cells assessed as cell growth inhibition by anti-angiogenisis screening assay. Format: toxicity, cell-based.
Data set [24] in a line: Cytotoxicity against mouse SVR cells assessed as cell growth inhibition by anti-angiogenisis screening assay. Format: toxicity, cell-based.
The test system of data set [25] is A549. The experiment in a line: Anticancer activity against human A549 cells assessed as cell growth inhibition. Format: functional.
In data set [26] the test system is NCI-H460. The experiment in a line: Anticancer activity against human NCI-H460 cells assessed as cell growth inhibition. Format: functional.
The test system of data set [27] is SVR. The experiment in a line: Anti-angiogenesis activity in mouse SVR cells assessed as cell growth inhibition. Format: functional, cell-based.
Data set [28] can be described thus: Anti-angiogenesis activity in […] MS-1 cells assessed as cell growth inhibition. Format: functional, cell-based.
The test system of data set [29] is HUVEC. Description: Anti-angiogenesis activity in HUVEC cells assessed as cell growth inhibition. Format: functional, cell-based. As to conditions: Homo sapiens.
For data set [30], the system named is B16. Description: Antiproliferative activity against mouse B16 cells assessed as cell growth inhibition measured after 72 hrs by MTT assay. Format: functional, cell-based. Conditions: B16, 72 h.
For data set [31], the system named is L1210. The experiment in a line: Antiproliferative activity against mouse L1210 cells assessed as cell growth inhibition measured after 72 hrs by MTT assay. As to conditions: L1210, 72 h. Format: functional, cell-based.
The subject of data set [32] is NCI-H460. The experiment in a line: Antiproliferative activity against human NCI-H460 cells assessed as cell growth inhibition measured after 24 hrs by MTT assay. Format: functional, cell-based. Conditions: NCI-H460, 24 h.
The test system of data set [33] is A549. The experiment in a line: Antiproliferative activity against human A549 cells assessed as cell growth inhibition measured after 24 hrs by MTT assay. As to conditions: A549, 24 h. Format: functional, cell-based.

The IC50 is the concentration needed to halve the response being measured. In the case of `CCN(CC)CCOc1ccc(C(=O)N2C/C(=C\c3ccccc3)C(=O)/C(=C/c3ccccc3)C2)cc1`, the IC50 in data set [1] came out at 0.72 µM; in data set [2] it was 1.46 µM; in data set [3], 1.64 µM; in data set [4], 41 µM; in [5], 0.53 µM.

Regarding `Cc1ccc(/C=C2\CN(C(=O)c3ccc(OCCN(C)C)cc3)C/C(=C\c3ccc(C)cc3)C2=O)cc1`, the 50% inhibitory concentration (IC50) in data set [1] is 0.72 µM; in data set [2], 1.46 µM; in data set [3] it was 1.64 µM; in data set [4], 41 µM; in data set [5] it was 0.53 µM.

The EC50 is the concentration that produces a half-maximal response. For the molecule `COc1cc(/C=C/C(=O)/C=C/c2ccc(O)c(OC)c2)ccc1O`, the IC50 is 5.98 µM in data set [6]; 7.32 µM in data set [7]; 3.7 µM in data set [8]; 3.28 µM in data set [9]; 3.67 µM in data set [10]; 0.4 µM in data set [13]. For the same molecule, the EC50 in data set [11] and in data set [12] was 1.03 µM throughout.

As a reminder, the inhibition is how much of the control response was suppressed. Take `O=C(/C=C/c1ccccc1)/C=C/c1ccccc1`: the inhibition at 4 ug/ml in data set [14] was determined as 87.1%. In addition, the inhibition at 6 ug/ml in data set [15] worked out at 90.4%.

As to `O=C1/C(=C/c2ccccn2)CCC/C1=C\c1ccccn1`, the inhibition at 6 ug/ml in [15] was determined as 96%. Besides, the inhibition at 3 ug/ml in data set [16] is 90.1%.

For `COc1cc(/C=C2\CNC/C(=C\c3cc(OC)cc(OC)c3)C2=O)cc(OC)c1`, the IC50 in [17] came out at 0.2 µM.

For the molecule `O=C1/C(=C/c2cccc(O)c2)CNC/C1=C\c1cccc(O)c1`, the IC50 came to 0.2 µM in [17] and 0.3 µM in data set [18].

Consider `O=C(/C=C/c1c(Cl)cccc1Cl)/C=C/c1c(Cl)cccc1Cl`, for which the inhibition at 4 ug/ml in data set [14] turned out to be 87.1%. For the same molecule, in data set [15], the inhibition at 6 ug/ml is 90.4%.

Consider `O=C1/C(=C/c2cccc(F)c2)CCC/C1=C\c1cccc(F)c1`, for which the EC50 in data set [19] is 16.4 µM; in data set [11] it was 8.3 µM; in [12], 6 µM.

As a reminder, the GI50 is the concentration at which growth is held to half of that of the control. Regarding `O=C(/C=C/c1ccccc1F)/C=C/c1ccccc1F`, the GI50 was found to be 1 µM in data set [20]; 2.3 µM in [21] (RPMI-7951, time 72 hrs); 6.1 µM in data set [22]; 6.1 µM in data set [23]; 6.1 µM in data set [24]; 17 µM in data set [25]. Besides, in data set [26], the GI50 stood at 11.3 µM.

Take `CN1C/C(=C\c2ccccc2O)C(=O)/C(=C/c2ccccc2O)C1`: it took 0.9 µM to inhibit growth in [20] by half (GI50). Moreover, the IC50 is 0.9 µM in data set [21] (RPMI-7951, 72 h); 1.1 µM in data set [27]; 1.1 µM in data set [28]; 1.1 µM in data set [29].

In the case of `COc1cc(/C=C2\CC(c3ccccc3)C/C(=C\c3cc(OC)c(OC)c(OC)c3)C2=O)cc(OC)c1OC` (stereo unspecified), the IC50 was found to be 0.51 µM in [30] and 0.12 µM in [31].

As for `CCN1C/C(=C\c2ccc(OC)c(OC)c2OC)C(=O)/C(=C/c2ccc(OC)c(OC)c2OC)C1`, the IC50 worked out at 2.3 µM in data set [32] and 5.3 µM in [33].
